Experimental data as given in the supplement of paper PMC10733146.

What was measured:
Test in all cases: viability relative to DMSO control (fraction); higher = less drug effect (more viable cells)
Details in all cases: 48 h
[1] = test system: primary CLL patient cells (S043)
Method in brief: (§1)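 The cells were primary mononuclear tumour cells, either fresh or cryopreserved, isolated by Ficoll from blood or bone marrow or derived from processed lymph node. Each well of a 384-well plate received 4 × 10^4 cells onto compounds pre-plated at five concentrations, with one well per concentration. The medium was RPMI-1640 with penicillin/streptomycin, L-glutamine and human serum, and plates stood at 37 °C and 5% CO2 for 48 h. Viability is reported as CellTiter-Glo luminescence relative to the median of 16 inner DMSO wells.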

[2] = test system: primary AML patient cells (S081)
Method in brief: as §1

[3] = test system: primary AML patient cells (S002)
Method in brief: as §1

[4] = test system: primary MCL patient cells (S063)
Method in brief: as §1

[5] = test system: primary AML patient cells (S025)
Method in brief: as §1

[6] = test system: primary AML patient cells (S012)
Method in brief: as §1

[7] = test system: primary MCL patient cells (S068)
Method in brief: as §1

[8] = test system: primary AML patient cells (S056)
Method in brief: as §1

[9] = test system: primary AML patient cells (S009)
Method in brief: as §1

[10] = test system: primary AML patient cells (S079)
Method in brief: as §1

[11] = test system: primary AML patient cells (S017)
Method in brief: as §1

[12] = test system: primary AML patient cells (S055)
Method in brief: as §1

[13] = test system: primary ALL patient cells (S048)
Method in brief: as §1

[14] = test system: primary AML patient cells (S021)
Method in brief: as §1

[15] = test system: primary T-PLL patient cells (S008)
Method in brief: as §1

[16] = test system: primary AML patient cells (S006)
Method in brief: as §1

[17] = test system: primary MCL patient cells (S053)
Method in brief: as §1

[18] = test system: primary BL patient cells (S005)
Method in brief: as §1

[19] = test system: primary AML patient cells (S072)
Method in brief: as §1

[20] = test system: primary FL patient cells (S022)
Method in brief: as §1

## N#CC[C@H](C1CCCC1)n1cc(-c2ncnc3[nH]ccc23)cn1 [Ruxolitinib]
[1]; 0.024 µM
  viability: 0.915
[1]; 0.12 µM
  viability: 1.05
[1]; 0.6 µM
  viability: 0.938
[1]; 3 µM
  viability: 1.05
[1]; 15 µM
  viability: 0.966
[2]; 0.024 µM
  viability: 1.02
[2]; 0.12 µM
  viability: 0.9
[2]; 0.6 µM
  viability: 0.951
[2]; 3 µM
  viability: 0.854
[2]; 15 µM
  viability: 0.817
[3]; 0.024 µM
  viability: 0.982
[3]; 0.12 µM
  viability: 0.788
[3]; 0.6 µM
  viability: 0.851
[3]; 3 µM
  viability: 0.707
[3]; 15 µM
  viability: 0.646
[4]; 0.024 µM
  viability: 1.02
[4]; 0.12 µM
  viability: 0.939
[4]; 0.6 µM
  viability: 0.975
[4]; 3 µM
  viability: 0.932
[4]; 15 µM
  viability: 0.875
[5]; 0.024 µM
  viability: 0.954
[5]; 0.12 µM
  viability: 0.962
[5]; 0.6 µM
  viability: 1.04
[5]; 3 µM
  viability: 1.02
[5]; 15 µM
  viability: 1.06
[6]; 0.024 µM
  viability: 0.973
[6]; 0.12 µM
  viability: 0.973
[6]; 0.6 µM
  viability: 1.03
[6]; 3 µM
  viability: 0.951
[6]; 15 µM
  viability: 0.846
[7]; 0.024 µM
  viability: 0.978
[7]; 0.12 µM
  viability: 0.987
[7]; 0.6 µM
  viability: 0.989
[7]; 3 µM
  viability: 1.05
[7]; 15 µM
  viability: 0.947
[8]; 0.024 µM
  viability: 0.954
[8]; 0.12 µM
  viability: 0.894
[8]; 0.6 µM
  viability: 0.814
[8]; 3 µM
  viability: 0.891
[8]; 15 µM
  viability: 0.69
[9]; 0.024 µM
  viability: 1.09
[9]; 0.12 µM
  viability: 1.01
[9]; 0.6 µM
  viability: 0.98
[9]; 3 µM
  viability: 1.02
[9]; 15 µM
  viability: 0.928
[10]; 0.024 µM
  viability: 0.979
[10]; 0.12 µM
  viability: 0.845
[10]; 0.6 µM
  viability: 0.808
[10]; 3 µM
  viability: 0.774
[10]; 15 µM
  viability: 0.724
[11]; 0.024 µM
  viability: 1.05
[11]; 0.12 µM
  viability: 1.03
[11]; 0.6 µM
  viability: 1.09
[11]; 3 µM
  viability: 1
[11]; 15 µM
  viability: 0.907
[12]; 0.024 µM
  viability: 1.01
[12]; 0.12 µM
  viability: 0.961
[12]; 0.6 µM
  viability: 1
[12]; 3 µM
  viability: 1.03
[12]; 15 µM
  viability: 1.05
[13]; 0.024 µM
  viability: 1.03
[13]; 0.12 µM
  viability: 0.945
[13]; 0.6 µM
  viability: 0.963
[13]; 3 µM
  viability: 0.988
[13]; 15 µM
  viability: 0.852
[14]; 0.024 µM
  viability: 0.919
[14]; 0.12 µM
  viability: 0.801
[14]; 0.6 µM
  viability: 0.844
[14]; 3 µM
  viability: 0.779
[14]; 15 µM
  viability: 0.723
[15]; 0.024 µM
  viability: 0.966
[15]; 0.12 µM
  viability: 1.01
[15]; 0.6 µM
  viability: 0.97
[15]; 3 µM
  viability: 1.09
[15]; 15 µM
  viability: 0.952
[16]; 0.024 µM
  viability: 1.04
[16]; 0.12 µM
  viability: 0.921
[16]; 0.6 µM
  viability: 0.963
[16]; 3 µM
  viability: 0.904
[16]; 15 µM
  viability: 0.656
[17]; 0.024 µM
  viability: 1.03
[17]; 0.12 µM
  viability: 0.928
[17]; 0.6 µM
  viability: 1.02
[17]; 3 µM
  viability: 1.03
[17]; 15 µM
  viability: 0.831
[18]; 0.024 µM
  viability: 1.01
[18]; 0.12 µM
  viability: 1.18
[18]; 0.6 µM
  viability: 0.974
[18]; 3 µM
  viability: 1.15
[18]; 15 µM
  viability: 1.03
[19]; 0.024 µM
  viability: 1.04
[19]; 0.12 µM
  viability: 0.925
[19]; 0.6 µM
  viability: 0.873
[19]; 3 µM
  viability: 0.913
[19]; 15 µM
  viability: 0.883
[20]; 0.024 µM
  viability: 0.968
[20]; 0.12 µM
  viability: 0.882
[20]; 0.6 µM
  viability: 1.05
[20]; 3 µM
  viability: 0.908
[20]; 15 µM
  viability: 0.893
